# US6670347B2, “19-nor-17α-pregna-1,3,5(10)-trien-17β-ols with a 21,16α-lactone ring” (Schering AG, priority 2000, dated 2003)
# Tests used:
# [1] = target: T1, estrogen receptor preparations of rat uteri (rat uterus cytosol; ERα predominates) (Rattus norvegicus, UniProt P06211); assay: Estrogen receptor binding, rat uterus cytosol (competition with 3H-estradiol); conditions: relative binding affinity, RBA of reference substance estradiol = 100
# T1 construct: The preparation of rat uterus cytosol, and the receptor test with the ER containing cytosol; from tissue; host or cells: rat uterus cytosol
# T1 sequence (P06211 1-600): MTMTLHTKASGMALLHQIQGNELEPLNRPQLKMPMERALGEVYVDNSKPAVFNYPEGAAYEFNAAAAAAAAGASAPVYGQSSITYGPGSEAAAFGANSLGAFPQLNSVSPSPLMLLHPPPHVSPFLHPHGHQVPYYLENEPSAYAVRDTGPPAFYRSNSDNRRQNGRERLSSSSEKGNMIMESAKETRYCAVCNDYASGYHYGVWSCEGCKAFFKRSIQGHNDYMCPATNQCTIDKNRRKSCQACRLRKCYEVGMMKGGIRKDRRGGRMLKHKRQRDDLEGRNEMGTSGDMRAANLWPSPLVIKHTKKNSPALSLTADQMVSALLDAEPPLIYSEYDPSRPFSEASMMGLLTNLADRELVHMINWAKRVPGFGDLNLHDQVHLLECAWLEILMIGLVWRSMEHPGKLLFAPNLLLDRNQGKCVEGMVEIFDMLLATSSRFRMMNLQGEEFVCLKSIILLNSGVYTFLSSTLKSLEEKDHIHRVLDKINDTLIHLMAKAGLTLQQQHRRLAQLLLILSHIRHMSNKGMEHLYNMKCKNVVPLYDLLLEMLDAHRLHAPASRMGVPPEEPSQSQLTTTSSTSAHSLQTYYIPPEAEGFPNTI
# Method: (§1) This patent application describes novel structures for selective estrogens, which have in vitro dissociation with respect to binding to estrogen receptor preparations of the rat uterus and rat prostate. In this case, it is assumed that ERα predominates in the rat uteri over ERβ, while ERβ predominates in the rat prostates over ERα.
# (§2) The binding affinity of the new selective estrogens was tested in competitive tests with use of 3H-estradiol as a ligand in estrogen receptor preparations of rat prostates and rat uteri. The preparation of the prostate cytosol and the estrogen receptor test was performed with the prostate cytosol, as described by Testas et al. (1981) (Testsas, J. et al., 1981, Endocrinology 109:1287-1289).
# The preparation of rat uterus cytosol, and the receptor test with the ER containing cytosol were performed basically as by Stack and Gorski, 1985 (Stack, Gorski 1985, Endocrinology 117, 2024-2032) with some modifications as described in Fuhrmann et al. (1995) (Fuhrmann U. et al. 1995, Contraception 51:45-52).
# [2] = system: estrogen receptor preparations of rat prostates (rat prostate cytosol; ERβ predominates); assay: Estrogen receptor binding, rat prostate cytosol (competition with 3H-estradiol); conditions: relative binding affinity, RBA of reference substance estradiol = 100
# Method: as §1, §2
# ovariectomized rats = assay: Uterus growth test on ovariectomized rats (3-day treatment); format: in vivo, rat; parameters: unit not given beside the values; conditions: subcutaneously daily over 3 days
# Method: An in-depth description of the experiment was published (K. H., Fritzemeir, Ch. Hegele-Hartung (1999), Handbook of Pharmacol., Oettel, Schillinger eds., 135/II, 21:1-94). Ovariectomized rats were treated 10 days after ovariectomy with various dosages of the test substance or reference substance. The treatment was carried out subcutaneously daily over 3 days. On day 4, the animals were sacrificed, and the uterus moist and dry weights were determined.
Rat Uterus Cytosol (RBA*) [1],Rat Prostate Cytosol (RBA*) [2],Structure (SMILES),Uterus Moist Weight [Mw ± SD] (ovariectomized rats; dosage 0.1 μg/kg),Uterus Moist Weight [Mw ± SD] (ovariectomized rats; dosage 1 μg/kg),Uterus Moist Weight [Mw ± SD] (ovariectomized rats; dosage 10 μg/kg)
12.5,<0.1,"C[C@]12CC[C@@H]3c4ccc(O)cc4CC[C@H]3[C@@H]1C[C@H]1OC(=O)C[C@]12O [3,17β-Dihydroxy-19-nor-17α-pregna-1,3,5(10)-triene-21,16α-lactone]",23.7 ± 2.2,60.1 ± 7.4,95.9 ± 12.4
–,–,"C[C@]12CC[C@@H]3c4ccc(O)cc4CC[C@H]3[C@@H]1CC[C@@H]2O [17β-Estradiol, reference compound]",28.0 ± 2.0,71.9 ± 9.6,82.3 ± 11.3
